The results in this text go back to paper PMC7238120, “Strong and Selective Inhibitory Effects of the Biflavonoid Selamariscina A against CYP2C8 and CYP2C9 Enzyme Activities in Human Liver Microsomes” (Pharmaceutics, 2020).

One may read the Ki as the equilibrium dissociation constant of an inhibitor or competing ligand from its target. Broadly, the IC50 is the concentration that inhibits the measured activity by half. One may read the inhibition as the percentage by which the read-out fell short of the control.

For this series, the target named is T1, CYP2C8 (Homo sapiens, UniProt P10632).
T1 sequence (P10632 1-490): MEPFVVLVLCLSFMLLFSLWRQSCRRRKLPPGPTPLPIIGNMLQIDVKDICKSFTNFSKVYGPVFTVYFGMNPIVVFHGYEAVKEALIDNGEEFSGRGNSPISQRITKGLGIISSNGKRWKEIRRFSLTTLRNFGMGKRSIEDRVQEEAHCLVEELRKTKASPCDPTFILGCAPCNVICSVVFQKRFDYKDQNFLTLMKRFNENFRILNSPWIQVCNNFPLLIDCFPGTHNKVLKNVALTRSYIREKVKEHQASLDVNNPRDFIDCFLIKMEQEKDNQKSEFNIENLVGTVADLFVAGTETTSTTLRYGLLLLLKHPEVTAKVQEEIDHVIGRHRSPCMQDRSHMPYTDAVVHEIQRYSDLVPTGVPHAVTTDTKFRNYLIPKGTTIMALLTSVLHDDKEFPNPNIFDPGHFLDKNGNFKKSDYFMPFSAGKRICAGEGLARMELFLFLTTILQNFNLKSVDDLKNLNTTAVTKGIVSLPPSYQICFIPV
The experiment in a line: Inhibition of CYP2C8-catalyzed amodiaquine N-deethylation in pooled human liver microsomes. It counts as in vitro ADME. The arrangement: incubation mixtures containing pooled human liver microsomes (HLMs, XTreme 200, XenoTech); tissue XenoTech XTreme 200; host or cells: pooled human liver microsomes. The note with it: for Ki: amodiaquine 0.1, 0.4, 1 µM, average ± standard error, triplicate; for IC50: substrate amodiaquine 1 µM, read-out: IC50, P450 2C8; for IC50 / inhibition at 10 min, 0.5 µM: pooled HLMs 0.25 mg/mL; for inhibition at 10 min, 0.5 µM: inhibitor 0.5 μM. As to the method:
The inhibitory potential of the five biflavonoids on the metabolism of nine P450 probe substrates was evaluated using previously developed methods with minor modifications. Biflavonoids were dissolved in methanol. The final concentration of methanol in the incubation mixture was 1.0% (v/v). We used these P450 probe substrates: phenacetin for CYP1A2, coumarin for CYP2A6, bupropion for CYP2B6, amodiaquine for CYP2C8, diclofenac for CYP2C9, omeprazole for CYP2C19, dextromethorphan for CYP2D6, chlorzoxazone for CYP2E1 and midazolam for CYP3A (Table 1). The incubation mixtures containing pooled human liver microsomes (HLMs, XTreme 200, XenoTech), P450 probe substrates, and inhibitor (0~20 µM) were pre-incubated at 37 °C for 5 min. The concentration range of the inhibitor varied (0, 0.002, 0.005, 0.02, 0.05, and 0.2 µM for CYP2C8; 0, 0.02, 0.05, 0.2, 0.5, and 2 µM for CYP2C9; 0, 0.5, 2, 5, 10, and 20 µM for other P450 isoforms). After pre-incubation, a reduced nicotinamide adenine dinucleotide phosphate (NADPH) generation system containing 1 unit/ml G6PDH, 1.3 mM β- nicotinamide adenine dinucleotide phosphate (β- NADP^+), 3.3 mM MgCl2, and 3.3 mM G6P was added to initiate a reaction, and further incubated for 10 min at 37 °C. The reaction was stopped by adding 50 μL of ice-cold acetonitrile containing 7 nM trimipramine (internal standard, IS). After centrifugation at 18,000 g (5 min, 4 °C), aliquots of supernatants were analyzed by LC–MS/MS (Shimadzu LCMS 8060 system, Shimadzu, Kyoto, Japan). All microsomal incubations were conducted in triplicate.
The other conditions were the same as in the cytochrome P450 inhibition study.
We used HLMs to determine the mechanisms and constants (Ki values) for selamariscina A inhibition of CYP1A2, CYP2B6, CYP2C8, CYP2C9 and CYP3A. The selamariscina A (0~50 μM) was added into the reaction mixtures, each of which contained concentrations of phenacetin (20, 50, and 100 μM), bupropion (20, 50, and 100 μM), amodiaquine (0.1, 0.4, and 1 μM), rosiglitazone (2, 5, and 10 μM), diclofenac (1, 4, and 10 μM), tolbutamide (50, 100, and 200 μM), and midazolam (0.5, 2, and 5 μM). The substrates were used at concentrations approximately near to their respective Km values. The concentration range of selamariscina A varied (0, 0.002, 0.005, 0.02, 0.05, and 0.2 μM for CYP2C8; 0, […], 0.02, 0.05, 0.2, and 0.5 μM for CYP2C9; 0, 0.2, 0.5, 2, 5, and 20 µM for CYP3A; 0, 0.5, 2, 5, 20, and 50 μM for CYP1A2 and CYP2B6). The other conditions were the same as in the cytochrome P450 inhibition study.
All metabolites and the IS were separated on a Kinetex XB-C18 column (100 × 2.10 mm, 2.6 μm, 100 Å; Phenomenex, Torrance, CA, USA) and analyzed using a Shimadzu LCMS 8060 triple-quadrupole mass spectrometer coupled with a Nexera X2 ultra high-performance liquid chromatography system (Shimadzu, Kyoto, Japan) equipped with an electrospray ionization interface. The mobile phase consisted of 0.1% formic acid in water (A) and 0.1% formic acid in acetonitrile (B). The elution condition was set as 8% B (0–0.5 min), 8%→60% B (0.5–5 min), 60% B (5–6 min), 60%→8% B (6–6.1 min) and 8% B (6.1–9 min) for the analysis of metabolites of P450 probe substrates and set as 0%→40% B (0–1 min), 40%→50% B (1–5 min), 50%→0% B (5–5.1 min), and 0% B (5.1–8 min) for the analysis of metabolites of UGT probe substrates. The flow rate was 0.2 mL/min. Electrospray ionization was performed in positive-ion mode at 4000 V or in negative-ion mode at −3500 V. The optimum operating conditions were determined as follows: vaporizer temperature, 300 °C; capillary temperature, 350 °C; collision gas (argon) pressure, 1.5 mTorr. Quantitation was conducted in selected reaction monitoring (SRM) modes with the precursor-to-product ion transition for each metabolite (Table 1 and Table 2).
We analyzed the data with Shimadzu LabSolution LC–MS software. The IC50 values were calculated by WinNonlin software (Pharsight, Mountain View, CA, USA).
(Microsomes from liver hold many membrane-bound enzymes, among them those of drug oxidation.)

[1] abbreviates: human, pooled human liver microsomes, probe amodiaquine.

Consider `O=c1cc(-c2ccc(O)c(-c3c(-c4ccc(O)cc4)oc4cc(O)cc(O)c4c3=O)c2)oc2cc(O)cc(O)c12` [taiwaniaflavone], for which the IC50 came to 120 nM. Under “HLMs”, the “Mode of Inhibition, CYP2C8 amodiaquine” value is “Noncompetitive” and the Ki was determined as 142 ± 26 nM.

On to `O=C1CC(c2cc(-c3c(O)ccc4c(=O)cc(-c5ccc(O)cc5)oc34)c(O)cc2O)Oc2cc(O)cc(O)c21` (centres unmarked) [selamariscina A], for which the “Times stronger CYP2C8 inhibitory potential than amentoflavone” value is on record as “more than 4.5 times” and the IC50 worked out at 19 nM. Also, where the note is “HLMs”, the “Mode of Inhibition, CYP2C8 amodiaquine” value is “Noncompetitive” and the Ki was 18 ± 2 nM. The inhibition at 10 min, 0.5 µM under setting [1] is 92.8%.

Turning to `O=c1cc(-c2ccc(O)cc2)oc2c(-c3c(O)cc(O)c4c(=O)cc(-c5ccc(O)cc5)oc34)c(O)cc(O)c12` [cupressuflavone], the IC50 stood at 83 nM. Moreover, for the setting “HLMs”, the “Mode of Inhibition, CYP2C8 amodiaquine” value is “Noncompetitive” and the Ki came out at 103 ± 17 nM.

In the case of `O=c1cc(-c2ccc(O)c(-c3c(O)cc4oc(-c5ccc(O)cc5)cc(=O)c4c3O)c2)oc2cc(O)cc(O)c12` [robustaflavone], the IC50 came out at 83 nM. Under “HLMs”, the “Mode of Inhibition, CYP2C8 amodiaquine” value is on record as “Noncompetitive” and the Ki is 84 ± 16 nM.

Consider `O=c1cc(-c2ccc(O)c(-c3c(O)cc(O)c4c(=O)cc(-c5ccc(O)cc5)oc34)c2)oc2cc(O)cc(O)c12` [amentoflavone], for which the IC50 was 84 nM. In addition, for the setting “HLMs”, the “Mode of Inhibition, CYP2C8 amodiaquine” value is “Noncompetitive” and the Ki is 83 ± 9 nM.

On to `CC(C)(O)c1ccccc1CC[C@@H](SCC1(CC(=O)O)CC1)c1cccc(/C=C/c2ccc3ccc(Cl)cc3n2)c1` [montelukast, reference compound], for which, for the setting “IC50 comparison at 0.25 mg/mL microsomal protein”, the “Times weaker CYP2C8 inhibition than selamariscina A” value was “more than 25 times”. Besides, the inhibition at 10 min, 0.5 µM under setting [1] came to 52.7%. Further, under “human, pooled human liver microsomes, probe amodiaquine, inhibitor 5 μM, HLMs”, the inhibition at 10 min, 5 µM worked out at 86.1%.
